Laboratory results published in patent US20240269197A1, “INSULIN-SENSITIZING AGENT AND BUTYRATE-PRODUCING BACTERIUM” (priority 2021, published 2024).
Structures can show the parent of a compound that is named as a salt.

Tested on: subjects aged 18-65 years with a HOMA(-IR) score between 2.5 and 3.5 (insulin resistance)
Test: Reduction in HOMA-IR after 28 days of (non-)butyrate-producing bacteria with or without (non-)insulin-sensitizing agents (Experimental Example 1)
Assay type: in vivo, human
Parameters: key: Non-measurable: the first rank describes the lowest effect; Very low: very low; Low: low; Low/medium: low/medium; Medium: medium; High: high; Very high: the last rank describes the highest effect
Conditions: supplement alone, bacterium placebo
Excerpt: The term ‘insulin resistance’ is well known by the skilled person. Within this disclosure, the term encompasses all conditions diagnosed as ‘insulin resistance’ by an (authorized) medical practitioner. The term ‘insulin resistance’ as used herein preferably refers to peripheral insulin resistance and/or hepatic insulin resistance. Insulin resistance may be diagnosed, for example, by the gold standard that is the “hyperinsulinemic euglycemic clamp” (DeFronzo R A, Tobin J D, Andres R, Am J Physiol. 1979 September; 237(3): E214-23). This method measures the amount of glucose necessary to compensate for an increased insulin level without causing hypoglycemia. The procedure may take two hours and typically involves the following steps: Through a peripheral vein, insulin is infused at 10-120 mU per m^2 per minute. In order to compensate for the insulin infusion, glucose 20% is infused to maintain blood sugar levels between 5 and 5.5 mmol/L. The rate of glucose infusion is determined by checking the blood sugar levels every five to ten minutes (Muniyappa R, Lee S, Chen H, Quon M J, January 2008, American Journal of Physiology. Endocrinology and Metabolism. 294 (1): E15-26). […] The homeostatic model assessment for insulin resistance (HOMA or HOMA-IR) is an alternative method used to determine and quantify insulin resistance in a fasting steady-state condition, and correlates reasonably with the golden standard (See e.g., Matthews D R, Hosker J P, Rudenski A S, Naylor B A, Treacher D F, Turner R C (1985). Diabetologia. 28 (7): 412-9. Doi:10.1007/BF00280883. PMID 3899825; and/or A. S. Rudenski; D. R. Matthews; J. C. Levy; R. C. Turner (1991) Metabolism. 40 (9): 908-917). […] The HOMA(-IR) value can be calculated by the following equation: […]
Mixed male/female subjects aged 18-65 years with a HOMA(-IR) score between 2.5 and 3.5, thus indicating insulin resistance, are included in the study. The HOMA-IR can be determined as described herein elsewhere. The HOMA(-IR) is measured at baseline and after 28 days. […]

Which “reduction in HOMA-IR value” does the source give for CN(C)C(=N)NC(=N)N [Metformin, 1,1-dimethylbiguanide hydrochloride, reference compound] here?
Its value is “Low/medium”.

With OC[C@@H](O)[C@@H](O)[C@H](O)[C@@H](O)CO [Sorbitol, D-glucitol] as the molecule, how does the “reduction in HOMA-IR value” read?
The value was “Low/medium”.

Which “reduction in HOMA-IR value” does the source give for chromium(III) picolinate here?
Its value is “Very low”.
